For one data set, the system named is UL99 mRNA. In words: UL99 late transcript level by qPCR in HCMV-infected fibroblasts. In kind it is cell-based, human cytomegalovirus. The settings on record: rapamycin 20 nM, Torin1 250 nM; 3 PFU/cell. In general terms: In qPCR the cycle at which signal appears reflects the starting amount.
The subject of another data set is HSV-1. The experiment in a line: HSV-1 replication in MEFs, TCID50. In kind it is cell-based, herpes simplex virus type 1. The following applies: 72 hpi.
The next data set deals with eIF4F complex. In words: Cap-binding (eIF4F) complex in MCMV-infected MEFs, m7G-Sepharose. It is filed as cell-based, mouse. The following applies: Torin1 250 nM, 48 hpi. On the procedure: FIG. 7. […] At 6 days post infection the amount of MCMV in cell-free supernatants was determined by the TCID50 method. The error bars represent the standard errors of the means from three independent experiments, each performed in duplicate. […] At 48 hpi equal amounts of protein from cell lysates were incubated with m^7G-Sepharose. The presence of eIF4F complex components bound by the cap analog was determined by Western blotting. The results are representative of two independent experiments.

In data set [1] the test system is HCMV proteins IE1, pUL44, pUL99. In words: Western blot of HCMV proteins in infected fibroblasts. In kind it is cell-based, human cytomegalovirus. The following applies: 6 to 96 hpi; rapamycin 20 nM, Torin1 250 nM; 3 PFU/cell. On the procedure: (§1) FIG. 2. […] Serum-starved confluent fibroblasts were infected with HCMV at a multiplicity of 3 PFU/cell. […] Control cultures received the vehicle in which Torin1 was dissolved (NT). At 2 hpi cells were harvested, and cell-associated viral DNA was quantified by real-time PCR analysis. Error bars represent the standard errors of the means from two independent experiments performed in duplicate. […] The level of IE1 was determined at 6 hpi by a Western blot assay using an IE1-specific monoclonal antibody. The image is representative of two independent experiments. […] The expression of a GFP marker gene present in the viral genome was monitored at 24 h after infection in the presence or absence of drug.
FIG. 3. […] Cells were harvested at the indicated times, and the accumulation of the indicated proteins was analyzed by Western blotting. […] At the indicated times DNA was isolated, and viral DNA was quantified by qPCR. Equivalent amounts of DNA were analyzed for each sample, and the results are normalized to the level of actin DNA per sample. […] At the indicated times the amount of UL99 RNA was determined by qPCR, and the results are normalized to the amount of actin RNA in each sample. […]
Antibodies to pUL99 have been described previously (Silva, et al. J. Virol. (2003) 77:10594-10605). In addition, accumulation of HCMV DNA was monitored following infection using the methods described above.
For orientation: Immunoblotting shows a protein as a band on a membrane.

Data set [2] concerns HCMV. In words: GFP marker expression from the HCMV genome (percentage of infected cells). In kind it is cell-based, human cytomegalovirus. The following applies: 24 hpi; 250 nM. On the procedure: as §1
The subject of data set [3] is HCMV. In words: HCMV multistep growth in serum-starved human fibroblasts, cell-free virus by TCID50. It is filed as cell-based, human cytomegalovirus.
Another data set has as its system cells. The settings on record: concentrations of up to 500 nM; previous reports; cited from earlier work.
The subject of the next data set is 4EBP1. The experiment in a line: 4EBP1 phosphorylation in HSV-1-infected MEFs (Western blot). It is filed as cell-based, mouse. The settings on record: 8 hpi, 3 PFU/cell. On the procedure:
FIG. 8. Rapamycin-resistant mTOR activity is required for lytic replication by representative alpha- and gamma-herpesviruses. (A) Confluent serum-starved MEFs were infected at a multiplicity of 0.05 PFU/cell with HSV-1 or γHV68. The amount of virus in cell-free supernatants was determined by the TCID50 method at 72 hpi for HSV-1 (left) and at 6 days post infection for γHV68 (right). Black bars represent vehicle-treated samples (N) (DMSO), gray bars represent rapamycin-treated samples (R) (20 nM), and white bars represent Torin1-treated samples (T) (250 nM). The error bars represent the standard errors of the means from at least two independent experiments. (B) Confluent MEF monolayers were infected with HSV-1 at a multiplicity of 3 PFU/cell. Infected cell lysates were harvested at 8 hpi, and equal amounts of protein were analyzed by Western blotting. (C) WT or 4EBP1-null MEFs were infected with HSV-1 at a multiplicity of 0.05 PFU/cell. The amount of cell-free virus present in the supernatant at 72 hpi was quantified by the TCID50 method. The error bars represent the standard errors of the means from two independent experiments.

Results on one compound are retold here after patent US20140206678A1, “INHIBITORS OF MTOR KINASE AS ANTI -VIRAL AGENT” (KADMON CORPORATION, LLC, priority 2011, published 2014).

Structures are written as SMILES. Where only a bound is given, the exact number is not on record here.

In general, IC50 refers to the concentration at which inhibition is half-maximal. For the compound `CCC(=O)N1CCN(c2ccc(-n3c(=O)ccc4cnc5ccc(-c6cnc7ccccc7c6)cc5c43)cc2C(F)(F)F)CC1` [Torin1], the “levels of UL99 mRNA” value in the data set with UL99 mRNA is listed as “decreased”. Moreover, in the data set with HSV-1 (MEFs, rapamycin 20 nM, Torin1 250 nM, 0.05 PFU/cell), the HSV-1 replication entry was “inhibited”. Further, the “production of HSV-1” value with HSV-1 (cells lacking 4EBP1) is on record as “failed to inhibit”. Further, the “formation of the eIF4F complex” value is reported as “no such effect was observed” in the data set on eIF4F complex (4EBP1-null cells) and “inhibited the formation” in the data set on eIF4F complex (control cells). The “accumulation of immediate-early protein IE1” value in data set [1] is “to a limited extent”. The “accumulation of late protein pUL99” value in data set [1] is reported as “dramatically reduced”. Also, the “percentage of cells expressing GFP marker protein” value in the data set on HCMV [2] is reported as “did not alter”. For the same compound, the concentration for half-maximal inhibition (IC50) with HCMV [3] (Human betaherpesvirus 5, Fibroblast, 192 h, read-out: IC50 for blocking production of HCMV progeny) was ~60 nM. For the same compound, the “HCMV replication after removal of drug” value is “completely recovered” with HCMV [3] (cells had received 100 nM Torin1, 16 days post infection); “substantially recovered” in the data set with HCMV [3] (cells had received 250 nM drug, 16 days post infection); “partially recovered” in the data set on HCMV [3] (cultures initially received 1 mM drug, 16 days post infection). Also, the “reduction of HCMV yield” value with HCMV [3] (day 10, rapamycin 20 nM, Torin1 250 nM, 0.05 PFU/cell) was “about 160 fold”. Further, in the data set with HCMV [3] (drug release, 16 days post infection), the “increase in virus yield after reversal of an 8-day Torin1 treatment” value is listed as > 100 fold. Besides, the cell killing entry in the data set on cells is listed as “does not kill cells”. Also, in the data set on 4EBP1, the “phosphorylation of 4EBP1 during HSV-1 infection” value is given as “inhibited”.
